Data set [1] can be described thus: Influence factors (stability) experiments of Form I, Form II and Form B. It counts as physicochemical. The text has this:
2. Influence factors experiments of Form I, Form II and Form B:
In addition, the same batch of raw materials was crystallized in acetone/ethyl alcohol to produce Form B and crystallized in acetone/water to produce Form I and Form II, then compare the appearance and color of the products.

A short description of data set [2]: Thermostability experiments: forms suspended in water and stirred at 60 and 100° C. The following applies: for increased amount of related substance, N-deacetylates: stirred in water at 100° C. for 48 h; for electrostatic effect: suspended in water at 100° C., stirred 24 h, filtered and dried; for DSC / X-ray powder diffraction (change) / melting temperature (change) / X-ray powder diffraction pattern (change): suspended in water; for melting temperature (change): numbers are decreases. It counts as physicochemical. As for the experimental part: Apremilast Crystalline Form II and Form B were suspended in water and stirred for 24-48 h under 60 and 100° C., respectively, then cooled, filtered, and dried, and X-ray powder diffraction patterns, DSC patterns, melting temperature and related substance were determined (see Table 4).
Apremilast Crystalline Form II and Form B were suspended in water, respectively, stirred at 60-100° C. for 48 h sampled at a certain time interval and filtered, dried to determine the change of melting temperature; sampled at 24 h, 48 h, filtered and dried to determine change of XRPD patterns, DSC patterns, melting temperature, electrostatic effects, and related substances.

Data set [3] can be described thus: Electrostatic effect under the same micronization condition. It counts as physicochemical. The text has this: Large electrostatic effect will adversely affect the preparation processing.
The nature of data set [4]: Solubility of Form II and Form B in common solvents. In kind it is physicochemical. To be noted: acetone, butanone, ethyl alcohol, methanol, ethyl acetate, acetonitrile, dichloromethane, tetrahydrofuran, petroleum ether, n-hexane, water. The method, then: The solubility of Form II and Form B in common solvents such as acetone, butanone, ethyl alcohol, methanol, ethyl acetate, acetonitrile, dichloromethane, tetrahydrofuran, petroleum ether, n-hexane, water was tested and compared.

Data set [5] can be described thus: Crystalline form conversion study, suspension in acetone/water at reflux. In kind it is physicochemical. To be noted: suspended in acetone/water (1:3), refluxing temperature; Form B 36 h, Form D 8-10 h. As for the experimental part: In addition, pure Form II can obtained by suspending crashed Forms A, B, C, D, E, F and/or G in acetone/water and stirring at 50° C. to refluxing temperature for 1-48 h.
Apremilast Crystalline Form B (5.0 g, particle size less than 300 mesh) was suspended in 60 ml acetone/water (1:3), heated to refluxing temperature and stirred for 36 h, then cooled while stirring, filtered, dried at 60° C. to obtain about 4.88 g of Apremilast Crystalline Form II, mp:148.3-150.3° C.
Apremilast Crystalline Form D (5.0 g, particle size less than 200mesh) was suspended in 60m1 acetone/water (1:3), heated to refluxing temperature and stirred for 8-10 h, then cooled while stirring, filtered, dried at 60° C. to obtain about 4.60 g of Apremilast Crystalline Form II, mp:148.3-150.5° C.

The nature of data set [6]: In vivo pharmacokinetic comparison study in SD rats (gavage, LC-MS/MS plasma concentration). The following applies: for AUC(0-t) / Cmax / Tmax: SD (Sprague-Dawley), rat, plasma, po, gavage 10 mg/kg suspension; for AUC(0-t): read-out: area under the curve AUC0-t; for Cmax: read-out: peak concentrations Cmax; for Tmax: 10 mg/kg. The method, then:
Twelve SD rats weight 200-220 g with half males and half females were divided randomly into 2 groups (named as group A and group B).
According to the administration route and dosage amounts provided in FDA references, the two crystalline forms were given by gavage to investigate their pharmacokinetic behaviors in rats. The dosage amounts of the two forms are both 10 mg/kg (solvent is 1% carboxymethylcellulose). The rats were fasted for 12 hs before the study, food was provided 4 hs after administration, water deprivation was not required during the whole study. • Blood was collected via the fundus venous plexus 10, 30mins, 1, 2, 4, 6, 8, 10, 12 and 24 hs after administration. The collected blood was placed on ice and centrifuged for 5min at 8000 rpm, plasma was separated, and cryoperserved in a −20° C. refrigerator. LC-MS/MS was used to determine the concentration of APST in plasma. Linearity range of APST in plasma is 2-1000ng/ml, the linearity was good.

A short description of data set [7]: Comparison of pharmacokinetics in Beagle dogs (oral capsule of crude drug powder, LC-MS/MS plasma concentration). To be noted: both sexes, dog, 30 mg crude drug powder capsule, single period. It counts as in vivo. As for the experimental part: 6 healthy Beagle dogs weight 6-8 kg with half males and half females were divided randomly into 2 groups, each group having 3.
According to the administration route and dosage amounts, medicine is administrated orally and the dosage is 30 mg/dog/time. After crude drug powder of two crystal forms being weighed about 30 mg respectively, capsule shell is used to be filled and 10 ml water is used accompanied with administration. The Beagle dogs were fasted for 12 hours before the study, and food is provided in 4 hours after administration. Water deprivation was not required during the whole study. Specific administration groups are designed in the table as below.
0.5ml venous blood was collected via the small saphenous veins 10, 30 min, 1, 2, 4, 6, 8, 10, 12, 24, 48 and 72 h before (0 hour) or after administration. After centrifugation for 5 minutes at 8000 rpm, blood plasma is separated out and placed in anti freezing plastic test tube for storing in refrigerator at −20 C temporarily.
Concentration of APST in blood plasma is tested by LC-MS/MS method. The linearity range of APST testing is 5 to 5000 ng/ml, and the linear is good.

The mark [8] stands for this setting: both sexes, SD rats, males and females together, read-out: time to peak Tmax.
Where [9] appears, read: both sexes, SD rats, males and females together, read-out: time to peak Tmax (median).
[10] abbreviates: both sexes, SD rats, males and females together.
[11] abbreviates: female, female rats, read-out: time to peak Tmax.
[12] abbreviates: female, female rats, read-out: time to peak Tmax (median).
Where [13] appears, read: male, male rats, read-out: time to peak Tmax.
Where [14] appears, read: male, male rats, read-out: time to peak Tmax (median).

In general, Tmax refers to the time at which the peak concentration occurs. For orientation: AUC(0-inf) means the area under the concentration-time curve extrapolated to infinity.

Bounds are passed on as bounds.

For the compound `CCOc1cc([C@@H](CS(C)(=O)=O)N2C(=O)c3cccc(NC(C)=O)c3C2=O)ccc1OC` [Form B, (+)-2-[1-(3-ethoxy-4-methoxyphenyl)-2-methylsulfonylethyl]-4-acetylaminoisoindoline-1,3-dione], the “stability under high temperature and high humidity conditions” value (“stability” for short) in data set [1] is listed as “stable”. Also, in data set [1], the “moisture absorption/humidity 92.5% weight gain” value is listed as under 1.0%. In addition, the “increased amount of related substance, N-deacetylates” value in data set [2] was 0.059%. Besides, the electrostatic effect entry in data set [2] is on record as “serious electrostatic effect”; in data set [3] it was “higher electrostatic effect”. In data set [2] (60° C., 48 h), the DSC is 157 °C. Also, in data set [2] (60° C., 48 h), the “X-ray powder diffraction (change)” value is on record as “weak”. Moreover, the “melting temperature (change)” value in data set [2] (60° C., 48 h) was “Decreased 2-3 °C”; in data set [2] (100° C., 24~48 h), “Decreased 3-4 °C”. For the same compound, in data set [2] (100° C., 24~48 h), the “X-ray powder diffraction pattern (change)” value is on record as “Weak absorption”. Moreover, in data set [4], the “solubility, Form II compared with Form B” value was “essentially no difference”. Besides, the “conversion of crystalline form (XRPD pattern and DSC pattern)” value in data set [5] was “complete conversion to Form II”. For the same compound, the AUC(0-t) in data set [6] (female rats) was 7000 ± 1140 ng·h/mL; in data set [6] (male rats) it was 530 ± 70 ng·h/mL; in data set [6] (setting [10]), 3770 ± 3620 ng·h/mL; in data set [7], 38000 ± 20500 ng·h/mL. Further, the Cmax in data set [6] (female rats) is 904 ± 28.5 ng/mL; in data set [6] (male rats) it was 142 ± 14 ng/mL; in data set [6] (setting [10]), 523 ± 417 ng/mL; in data set [7], 2410 ± 377 ng/mL. Moreover, the “exposure of APST-B as percentage of the exposure of APST-II” value in data set [6] (SD rats, males and females together, gavage 10 mg/kg) was “about 68.07%”. The Tmax was 1.6 h in data set [6] (setting [8]); 2.5 h in data set [6] (setting [9]); 2 to 6 h in data set [6] (setting [11]); 4 h in data set [6] (setting [12]); 1 h in data set [6] (setting [13]); 1 h in data set [6] (setting [14]). Further, the time of peak concentration (Tmax) in data set [7] was determined as 1.7 ± 0.6 h. For the same compound, the “AUC0-t of APST-B as percentage of that of APST-II” value in data set [6] (female rats, gavage 10 mg/kg) is 65.9%; in data set [6] (male rats, gavage 10 mg/kg), about 119.0%. In data set [6] (male rats, gavage 10 mg/kg), the “Cmax of APST-B as percentage of that of APST-II” value is reported as “about 132.3%”. In data set [7], this compound had an AUC(0-inf) of 38500 ± 20500 ng·h/mL.

Take `CCOc1cc(C(CS(C)(=O)=O)N2C(=O)c3cccc(NC(C)=O)c3C2=O)ccc1OC` (single isomer, unassigned; (+)) [Form II, (+)-2-[1-(3-ethoxy-4-methoxyphenyl)-2-methylsulfonylethyl]-4-acetylaminoisoindoline-1,3-dione]: the “stability” value in data set [1] is listed as “stable”. The “Change of related substance/high temperature for 10 days” value in data set [1] was “Essentially no”. In addition, in data set [1], the “moisture absorption/humidity 92.5% Change of related substances” value is listed as “essentially no”. In data set [1], the “moisture absorption/humidity 92.5% weight gain” value is listed as under 1.0%. In data set [1], the “Change of related substances/light exposure for 10 days” value is recorded as “essentially no”. Further, the “increased amount of related substance, N-deacetylates” value in data set [2] is listed as 0.046%. The results for the electrostatic effect entry in data set [2] and in data set [3] were “essentially no electrostatic effect” and “weak or no electrostatic effect”, respectively. For the same compound, the DSC in data set [2] (60° C., 48 h) was 150 °C; in data set [2] (100° C., 24~48 h) it was 150 °C. In addition, the “X-ray powder diffraction (change)” value in data set [2] (60° C., 48 h) is given as “essentially no”. Besides, the “melting temperature (change)” value in data set [2] (60° C., 48 h) is “essentially no”; in data set [2] (100° C., 24~48 h), “essentially no”. Further, the “X-ray powder diffraction pattern (change)” value in data set [2] (100° C., 24~48 h) was “essentially no”. Besides, the “solubility, Form II compared with Form B” value in data set [4] was “essentially no difference”. Further, the AUC(0-t) in data set [6] (female rats) turned out to be 10600 ± 1050 ng·h/mL; in data set [6] (male rats), 446 ± 81.2 ng·h/mL; in data set [6] (setting [10]), 5530 ± 5610 ng·h/mL; in data set [7], 37700 ± 22400 ng·h/mL. Moreover, the Cmax in data set [6] (female rats) was determined as 906 ± 179 ng/mL; in data set [6] (male rats) it was 108 ± 16.1 ng/mL; in data set [6] (setting [10]) it was 507 ± 452 ng/mL; in data set [7] it was 2050 ± 357 ng/mL. The Tmax was 1 to 6 h in data set [6] (setting [8]); 3 h in data set [6] (setting [9]); 4 to 6 h in data set [6] (setting [11]); 6 h in data set [6] (setting [12]); 1 to 2 h in data set [6] (setting [13]); 1 h in data set [6] (setting [14]). Also, the time to peak (Tmax) in data set [7] was determined as 9 ± 13 h. Further, the “exposure of Form II relative to the exposure of Form B” value in data set [6] (female SD rats) is on record as 1.5 times. Also, the AUC(0-inf) in data set [7] turned out to be 38200 ± 13000 ng·h/mL.

Regarding `CCOc1cc([C@@H](CS(C)(=O)=O)N2C(=O)c3cccc(NC(C)=O)c3C2=O)ccc1OC` [Form I, (+)-2-[1-(3-ethoxy-4-methoxyphenyl)-2-methylsulfonylethyl]-4-acetylaminoisoindoline-1,3-dione], in data set [1], the “stability” value was “stable”; the “Change of related substance/high temperature for 10 days” value was “Essentially no”; the “moisture absorption/humidity 92.5% Change of related substances” value is recorded as “essentially no”; the “Change of related substances/light exposure for 10 days” value is given as “essentially no”.

The record behind these values is US9850205B2, “Stable apremilast crystalline form II free of solvate and method of making the same” (UTOPHARM (SHANGHAI) CO., LTD, priority 2015, dated 2017).
